For one assay, the target named is T1, cloned human δ receptors (Homo sapiens, UniProt P41143).
T1 construct: expressed in transfected cells
The assay can be described thus: Binding assay, displacement of 125I-Deltorphin II (IC50hd). For orientation: Displacement assays read how much labelled ligand stays bound in the presence of the test substance.

For another assay, the target named is T2, cloned human κ receptors (Homo sapiens, UniProt P41145).
T2 construct: expressed in transfected cells; host or cells: human 293S (HEK 293S) cells
In words: Binding assay, displacement of 125I-DPDYN (IC50hk).

Another assay has as its target T3, cloned human μ receptors (Homo sapiens, UniProt P35372).
T3 construct: expressed in transfected cells; host or cells: human 293S (HEK 293S) cells
The assay can be described thus: Binding assay, displacement of 125I-FK33824 (IC50hm).

A further assay deals with T4, human δ receptors (Homo sapiens, UniProt P41143).
T4 construct: expressed in transfected cells
In words: Human δ receptor functional assay, GTP[γ]35S binding. The format is biochemical. The note with it: for Emax: in relation to SNC80. The procedure:
(§1) The agonist activity of the compounds is measured by determining the degree to which the compounds receptor complex activates the binding of GTP to G-proteins to which the receptors are coupled. In the GTP binding assay, GTP[γ]^35S is combined with test compounds and membranes from BEK-293S cells expressing the cloned human opioid receptors or from homogenised rat or mouse brain. Agonists stimulate GTP[γ]^35S binding in these membranes. The EC50 and Emax values of compounds are determined from dose-response curves. Right shifts of the dose response curve by the delta antagonist naltrindole are performed to verify that agonist activity is mediated through delta receptors. For human δ receptor functional assays, EC50 (low) is measured when the human δ receptors used in the assay were expressed at lower levels in comparison with those used in determining EC50 (high). The Emax values were determined in relation to the standard δ agonist SNC80, i.e., higher than 100% is a compound that has better efficacy than SNC80.
(§2) Rat brain membranes are thawed at 37° C., passed 3 times through a 25-gauge blunt-end needle and diluted in the GTPγS binding (50 mM Hepes, 20 mM NaOH, 100 mM NaCl, 1 mM EDTA, 5 mM MgCl2, pH 7.4, Add fresh: 1 mM DTT, 0.1% BSA). 120 μM GDP final is added membranes dilutions. […] The basal and maximal stimulated binding are determined in absence and presence of 3 μM SNC80. The assay performed on HEK 293S cells stably expressing cloned Delta receptors is done in a slightly different buffer (50 mM Hepes, 20 mM NaOH, 200 mM NaCl, 1 mM EDTA, 5 mM MgCl2, pH 7.4, Add fresh: 0.5% BSA, no DTT) and with a 3 μM final conc. of GDP.

Assay [1] deals with T5, δ receptors in rat brain membranes (Rattus norvegicus, UniProt P33533).
T5 construct: membranes from BEK-293S cells expressing the cloned human opioid receptors or from homogenised rat or mouse brain; from tissue; host or cells: rat brain
The assay can be described thus: Rat brain functional assay, GTPγ35S binding. It counts as biochemical. To be noted: for Emax: in relation to SNC80, read-out: EC50rb Emax. The procedure: Rat brains are weighed and rinsed in ice-cold PBS (containing 2.5 mM EDTA, pH 7.4). The brains are homogenized with a polytron for 30 sec (rat) in ice-cold lysis buffer (50 mM Tris, pH 7.0, 2.5 mM EDTA, with phenylmethylsulfonyl fluoride added just prior use to […] from a 0.5 M stock in DMSO:ethanol).
as §1, with “(high).” for “(high). The Emax values were determined in relation to the standard δ agonist SNC80, i.e., higher than 100% is a compound that has better efficacy than SNC80.”
as §2
On the technique in general: GTPγS resists hydrolysis and so accumulates on activated G proteins.

The mark [2] stands for this setting: human δ receptor, 293S cell membranes, read-out: IC50hd.
Where [3] appears, read: human δ receptors expressed at higher levels, read-out: EC50h (high) Emax.
Where [4] appears, read: human δ receptors expressed at higher levels, read-out: EC50h (high).
Setting [5] is: human δ receptors expressed at lower levels, read-out: EC50h (low) Emax.
Setting [6] is: EC50h (low), human δ receptors expressed at lower levels.

IC50, Emax and EC50 data for four compounds are collected here from patent US20060030569A1, “Diarylmethyl piperazine derivatives, preparations thereof and uses thereof” (AstraZeneca AB, priority 2004, published 2006).

The structures appear in SMILES notation. Where two headings read alike, the source gives them in different places.

T2 sequence (P41145 whole entry): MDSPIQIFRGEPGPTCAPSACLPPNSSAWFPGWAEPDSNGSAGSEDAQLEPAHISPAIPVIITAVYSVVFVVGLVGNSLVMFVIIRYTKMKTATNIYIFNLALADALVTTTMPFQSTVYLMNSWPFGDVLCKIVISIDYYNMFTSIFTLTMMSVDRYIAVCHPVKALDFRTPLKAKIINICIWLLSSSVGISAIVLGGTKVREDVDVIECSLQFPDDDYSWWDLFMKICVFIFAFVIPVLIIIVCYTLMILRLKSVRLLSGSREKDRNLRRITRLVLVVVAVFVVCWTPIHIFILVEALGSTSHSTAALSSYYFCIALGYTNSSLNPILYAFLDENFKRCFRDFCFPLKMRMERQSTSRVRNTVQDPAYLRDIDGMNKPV
T5 sequence (P33533 whole entry): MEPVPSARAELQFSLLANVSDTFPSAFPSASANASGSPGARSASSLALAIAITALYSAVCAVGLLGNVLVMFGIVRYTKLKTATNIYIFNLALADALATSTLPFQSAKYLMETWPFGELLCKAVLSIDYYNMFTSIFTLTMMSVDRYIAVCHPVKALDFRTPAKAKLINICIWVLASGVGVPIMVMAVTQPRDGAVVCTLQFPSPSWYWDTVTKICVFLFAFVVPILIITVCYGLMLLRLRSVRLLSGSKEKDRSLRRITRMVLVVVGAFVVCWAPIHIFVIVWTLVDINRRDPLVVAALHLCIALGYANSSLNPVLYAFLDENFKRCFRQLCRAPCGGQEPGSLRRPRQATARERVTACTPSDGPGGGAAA
T1 sequence (P41143 whole entry): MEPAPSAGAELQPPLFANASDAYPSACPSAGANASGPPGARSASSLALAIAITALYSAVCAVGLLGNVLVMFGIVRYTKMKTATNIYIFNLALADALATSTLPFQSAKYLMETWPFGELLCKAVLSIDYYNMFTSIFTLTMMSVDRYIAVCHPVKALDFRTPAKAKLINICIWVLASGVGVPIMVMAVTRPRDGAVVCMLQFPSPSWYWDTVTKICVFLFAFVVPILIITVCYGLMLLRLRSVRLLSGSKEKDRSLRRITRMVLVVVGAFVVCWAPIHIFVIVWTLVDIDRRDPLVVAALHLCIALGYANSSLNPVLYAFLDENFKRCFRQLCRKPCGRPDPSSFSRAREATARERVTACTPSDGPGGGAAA
T4 sequence (P41143 whole entry): as above
T3 sequence (P35372 whole entry): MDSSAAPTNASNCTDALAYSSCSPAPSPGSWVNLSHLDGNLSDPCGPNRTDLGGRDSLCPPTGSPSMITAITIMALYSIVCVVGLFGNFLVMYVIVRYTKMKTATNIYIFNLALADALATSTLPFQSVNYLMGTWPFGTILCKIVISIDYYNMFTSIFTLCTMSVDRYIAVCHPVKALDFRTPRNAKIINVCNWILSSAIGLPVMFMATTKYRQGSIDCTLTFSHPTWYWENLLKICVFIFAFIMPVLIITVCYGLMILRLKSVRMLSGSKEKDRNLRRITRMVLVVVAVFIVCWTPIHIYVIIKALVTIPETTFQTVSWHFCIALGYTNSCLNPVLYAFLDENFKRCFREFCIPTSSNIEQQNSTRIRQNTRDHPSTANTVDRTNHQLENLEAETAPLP

Take `CCN(CC)C(=O)c1ccc([C@H](c2cccc(N)c2)N2CCN(Cc3ccc(F)cc3)CC2)cc1`: the IC50 at cloned human δ receptors (setting [2]) came out at 0.587 nM; on cloned human κ receptors it was 5520 nM; on cloned human μ receptors, 715 nM. For the same compound, the Emax – broadly, the size of the effect at its maximum, as opposed to the concentration needed – on human δ receptors (setting [3]) was 104%; at human δ receptors (setting [5]) it was 95.3%; in assay [1] it was 130%. For the same compound, the EC50 at human δ receptors (setting [4]) was 4.18 nM; on human δ receptors (human δ receptors expressed at lower levels, read-out: EC50h (low)) it was 20.6 nM; in assay [1], 22.8 nM.

As to `CCN(CC)C(=O)c1ccc([C@@H](c2cccc(N)c2)N2CCN(Cc3ccc(F)cc3)CC2)cc1`, the values for the IC50 on cloned human δ receptors (setting [2]), on cloned human κ receptors and on cloned human μ receptors were 8.8 nM, above 10000 nM and 3320 nM, respectively. For the same compound, the values for the Emax (on human δ receptors (setting [3]); in assay [1]) were 89.1% and 66.3%, respectively. The EC50 on human δ receptors (setting [4]) was 100 nM; in assay [1] it was 466 nM.

Turning to `CCN(CC)C(=O)c1ccc([C@H](c2cccc(N)c2)N2CCN(Cc3ccccc3F)CC2)cc1`, the values for the IC50 at cloned human δ receptors, on cloned human κ receptors and at cloned human μ receptors were 0.717 nM, 7260 nM and 2260 nM, respectively. The compound further came in with an EC50 at human δ receptors (setting [6]) of 48.1 nM. Further, on human δ receptors (setting [5]), the Emax is 90%.

Take `CCN(CC)C(=O)c1ccc([C@H](c2cccc(N)c2)N2CCN(Cc3cccc(F)c3)CC2)cc1`: the IC50 at cloned human δ receptors came out at 1.08 nM; at cloned human κ receptors it was 5770 nM; at cloned human μ receptors, 2740 nM. Also, the EC50 on human δ receptors (setting [6]) worked out at 77.4 nM. For the same compound, the maximal effect (Emax) on human δ receptors (setting [5]) amounted to 84.4%.
